Source: article PMC13198932, “Pyrazolone-based ERO1 inhibitors in ERO1-driven triple-negative breast cancer and SEPN1-related myopathy: Structure–activity relationship and therapeutic potential” (Pharmacological research, 2025)
pIC50: −log10 of the molar value. Entries after “also recorded” stand apart in the source; their conditions may differ. Read-outs that look alike come from different tables or passages of the source.

Assays:
recombinant ERO1A [1] = biological target: T1, recombinant ERO1A (Mus musculus, UniProt Q8R180); parameters: method as in PMID 39962052; conditions: SAR of I1–I23, Fig. 8A; cited from earlier work
T1 construct: GST-SMT3-mouse ERO1A (residues 43–464); GST-SMT3 (GST-SUMO) (N, cleaved yes); made in house; host or cells: E. coli Rosetta DE3 (Novagen)
T1 sequence (Q8R180 43-464): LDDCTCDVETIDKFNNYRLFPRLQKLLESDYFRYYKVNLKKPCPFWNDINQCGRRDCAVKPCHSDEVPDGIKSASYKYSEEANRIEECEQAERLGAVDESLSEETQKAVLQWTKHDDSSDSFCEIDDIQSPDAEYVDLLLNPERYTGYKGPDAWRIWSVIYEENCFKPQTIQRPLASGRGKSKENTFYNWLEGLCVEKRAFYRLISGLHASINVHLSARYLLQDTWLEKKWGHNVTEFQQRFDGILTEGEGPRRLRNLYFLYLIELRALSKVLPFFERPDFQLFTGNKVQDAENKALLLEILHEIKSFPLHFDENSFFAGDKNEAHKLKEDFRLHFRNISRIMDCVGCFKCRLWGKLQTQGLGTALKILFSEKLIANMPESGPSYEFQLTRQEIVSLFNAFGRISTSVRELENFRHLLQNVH

[2] = biological target: T2, Human monoamine oxidase A (Mao-A) (Homo sapiens, UniProt P21397); experiment: Mao-A activity assay (commercial kit, p-tyramine, H2O2 fluorimetry); assay type: biochemical; conditions: 25 μM, 10 min incubation
T2 construct: purchased Sigma-Aldrich
T2 sequence (P21397 1-527): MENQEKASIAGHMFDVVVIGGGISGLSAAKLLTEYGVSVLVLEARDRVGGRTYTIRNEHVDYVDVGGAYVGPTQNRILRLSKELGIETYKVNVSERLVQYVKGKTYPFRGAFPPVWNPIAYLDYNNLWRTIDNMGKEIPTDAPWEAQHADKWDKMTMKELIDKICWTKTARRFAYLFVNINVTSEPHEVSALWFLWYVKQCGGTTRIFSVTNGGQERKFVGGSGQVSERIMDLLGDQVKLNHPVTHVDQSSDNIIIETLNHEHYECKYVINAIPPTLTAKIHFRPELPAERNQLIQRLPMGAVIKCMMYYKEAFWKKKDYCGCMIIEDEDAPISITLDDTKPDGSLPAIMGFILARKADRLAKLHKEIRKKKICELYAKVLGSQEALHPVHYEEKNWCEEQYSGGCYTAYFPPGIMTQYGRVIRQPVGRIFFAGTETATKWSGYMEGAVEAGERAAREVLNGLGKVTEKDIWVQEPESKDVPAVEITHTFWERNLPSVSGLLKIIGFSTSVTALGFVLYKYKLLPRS
Experimental: Mao-A activity was measured using a commercial assay kit according to the manufacturer’s instructions. Mao-A (0.837 μM) was incubated with vehicle (1 % DMSO), Clorgyline (50 μM), or various concentrations (1, 5, or 25 μM) of EN460, I2, I26, or I29 for 10 min. Mao-A catalyzes the oxidative deamination of p-tyramine, generating H2O2, which was quantified fluorimetrically (λex= 530; λem= 585 nm). Mao-A activity is presented as a percentage of the vehicle control.

recombinant PDI = recombinant PDI (Homo sapiens, UniProt P07237); experiment: PDI activity assay (insulin transhydrogenase / insulin turbidity assay); assay type: biochemical; conditions: 25 μM, 15 min incubation
Experimental: PDI activity was assessed using an insulin transhydrogenase assay. Bovine insulin (1 mg/mL) in sodium phosphate buffer, pH 7.0, containing 2 mM EDTA, was incubated with 1.4 μM recombinant PDI in the presence of vehicle (1 % DMSO) or various concentrations of isoquercetin (30 or 60 μM), EN460, I2, I26, or I29 (1, 5, or 25 μM) for 15 min. The turbidimetric assay of insulin disulfide reduction by PDI was initiated by adding 1 mM dithiothreitol, and the reaction was monitored at 650 nm for 80 min. PDI activity is presented as a percentage of the vehicle control.

E0771 tumors = test system: E0771 tumors; parameters: method as in PMID 35853086, PMID 36063727, PMID 33531624, PMID 39962052; conditions: previous studies; cited from earlier work
MDAMB231 cells = experiment: MTS assay of metabolic activity in MDAMB231 cells; assay type: cell-based, human; conditions: MDAMB231, dose-response, 24 h, 1 % FBS
Experimental: Six thousand cells (MDAMB231 and E0771) per well were seeded in 96-well plates and cultured in medium containing 1 % FBS. Cells were treated with varying concentrations of compounds and, after 24 h, incubated with MTS [3-(4,5-dimethylthiazol-2-yl)-5-(3-carboxymethoxyphenyl)-2-(4 sulfophenyl)2Htetrazolium]and PMS (phenazine methosulfate), following the instructions of the CellTiter 96® Aqueous Non-Radioactive Cell Proliferation Assay (Promega). Measurements were performed using a TECAN Infinite M200 plate reader with […] at 490 nm.

recombinant ERO1A [3] = biological target: T1, recombinant ERO1A; experiment: AUR-based kinetic assay of ERO1A activity (recombinant ERO1A and PDIA1, HRP, Amplex Ultra Red); assay type: biochemical; conditions: for IC50: logarithm of IC50 in μM, read-out: Log IC50 (confidence intervals) (converted); for IC50 / pIC50: Table 1 in Fig. 3; for pIC50: preincubated with ERO1A, NA stands for not active, read-out: IC50
Excerpt: A GST-SMT3-mouse ERO1A (residues 43–464) and His-tagged PDIA1 [30] were expressed in the Rosetta DE3 bacteria (Novagen) and purified as described in [29, 31]. The GST-SMT3 and His tags were cleaved using Ulp protease (Z03691, GenScript) and thrombin protease (T6884, Merck), respectively. Successful tag removal was confirmed by a shift to a lower molecular weight for ERO1A on SDS-PAGE and by the absence of signal in anti-His immunoblotting for PDIA1.
The kinetic assay of ERO1A activity is based on a reaction involving recombinant ERO1A and PDIA1 proteins, horseradish peroxidase (Worthington), and 5 μM Amplex Ultra Red, as detailed in [29]. The effect of ERO1A inhibitors was evaluated by preincubating the compounds with ERO1A and measuring the inhibition of the linear reaction rate, and the corresponding IC50 values were determined using Prism 10 (GraphPad).
EN460 and 16 newly synthesized derivatives (I24–I40) (except for I31, which was not evaluated due to potential toxicity associated with its CN group) were evaluated for their ability to inhibit ERO1-dependent AUR fluorescence using a kinetic assay with recombinant ERO1 and PDIA1, as previously described (Figs. 3A and 3B). Raw kinetic data showing AUR fluorescence over time in reactions containing reduced ERO1, PDIA1 and EN460-derivatives are presented in Fig. Sup.1 A and Sup. 1B. Reaction rates, measured in presence or absence of varying concentrations of each compound, were used to calculate IC50 values, defined as the concentration required to inhibit 50 % of ERO1 enzymatic activity (Figs. 3C, 3D and Fig. Sup1C).

[4] = biological target: T3, ERO1 in MDA-MB-231 breast cancer cells (Homo sapiens, UniProt Q96HE7); experiment: ERO1 redox state by non-reducing immunoblot in MDA-MB-231 cells; assay type: cell-based; conditions: MDA-MB-231, 1–100 μM, in physiological solution or dissolved in DMSO, Fig. 4B
T3 construct: Non-reducing Immunoblot of endogenous ERO1 in lysates of vehicle-treated MDAMB231; endogenous in cells; host or cells: MDA-MB-231
T3 sequence (Q96HE7 24-468): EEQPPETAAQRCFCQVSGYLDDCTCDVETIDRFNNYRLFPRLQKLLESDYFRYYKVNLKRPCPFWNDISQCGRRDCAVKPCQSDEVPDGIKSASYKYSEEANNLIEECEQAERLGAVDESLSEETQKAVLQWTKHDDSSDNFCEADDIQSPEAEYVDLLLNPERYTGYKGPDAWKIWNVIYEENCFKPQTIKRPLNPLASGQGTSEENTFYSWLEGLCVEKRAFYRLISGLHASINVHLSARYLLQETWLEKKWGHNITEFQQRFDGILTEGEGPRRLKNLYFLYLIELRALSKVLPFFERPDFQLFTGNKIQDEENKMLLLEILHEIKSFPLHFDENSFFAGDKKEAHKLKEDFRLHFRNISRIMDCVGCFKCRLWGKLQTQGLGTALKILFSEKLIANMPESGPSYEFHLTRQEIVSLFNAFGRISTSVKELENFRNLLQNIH
Experimental: MDAMB231 and E0771 cells were maintained in Dulbecco’s Modified Eagle’s Medium supplemented with 1 % fetal bovine serum and seeded at 70 % confluency in six-well plates one day prior to the experiment. Cells were treated with DTT (10 mM) and/or ERO1A inhibitors for 1–5 h. At the time of collection, phosphate-buffered saline containing 10 mM NEM was added, and cells were incubated on ice for 10 min in lysis buffer (50 mM Tris-HCl, pH 7.4; 150 mM NaCl; 1 % Triton X-100; 0.1 % SDS; 1 % sodium deoxycholate; protease inhibitors; and 10 mM NEM). Protein concentrations were determined using the BCA assay, and equal amounts of protein were separated by non-reducing SDS-PAGE followed by immunoblotting with a polyclonal antibody against ERO1A [33].

Sequence of recombinant PDI (P07237 18-508, species assumed): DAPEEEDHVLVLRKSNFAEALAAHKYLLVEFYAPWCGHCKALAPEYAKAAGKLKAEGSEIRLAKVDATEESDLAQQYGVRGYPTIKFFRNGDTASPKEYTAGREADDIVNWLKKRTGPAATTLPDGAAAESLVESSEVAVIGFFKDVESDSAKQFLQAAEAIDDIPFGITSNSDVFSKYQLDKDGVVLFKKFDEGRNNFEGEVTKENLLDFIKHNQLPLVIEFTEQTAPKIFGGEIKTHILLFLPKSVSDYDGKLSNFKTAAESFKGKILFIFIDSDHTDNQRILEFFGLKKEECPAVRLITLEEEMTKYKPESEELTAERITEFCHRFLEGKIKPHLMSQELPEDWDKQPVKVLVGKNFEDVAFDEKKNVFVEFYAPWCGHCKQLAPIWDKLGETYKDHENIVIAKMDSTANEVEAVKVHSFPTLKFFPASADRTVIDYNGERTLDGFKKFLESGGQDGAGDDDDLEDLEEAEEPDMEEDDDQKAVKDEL

Structure (SMILES) | ERO1 inhibitory activity (in words) (recombinant ERO1A [1]) | IC50 (recombinant ERO1A [3]; compounds dissolved in DMSO) [µM] | ERO1 inhibitory activity (in words) (recombinant ERO1A [3]; compounds dissolved in DMSO) | pIC50 (recombinant ERO1A [3]; compounds dissolved in DMSO) | also measured
O=C1/C(=C/c2ccc(-c3ccccc3)o2)C(C(F)(F)F)=NN1c1ccc(Cl)cc1 [I1] | inactive |  |  |  | 
O=C1/C(=C/c2ccc(-c3ccccc3)o2)C(C(F)(F)F)=NN1c1ccc(Cl)cc1Cl [I2] | retained activity |  |  |  | pIC50 (recombinant ERO1A [1]): 5.10; Mao-A activity (percentage of the vehicle control) [2]: inhibited Mao-A activity; PDI activity (percentage of the vehicle control) (recombinant PDI): inhibited PDI activity; VEGFA levels (E0771 tumors): reduced VEGFA levels; metabolic activity (MTS assay) (MDAMB231 cells): significantly reduced metabolic activity
O=C(O)c1cccc(N2N=C(C(F)(F)F)/C(=C\c3ccc(-c4ccccc4)o3)C2=O)c1 [I3] | retained activity |  |  |  | pIC50 (recombinant ERO1A [1]): 5.46
COC(=O)c1cc(N2N=C(C(F)(F)F)/C(=C\c3ccc(-c4ccccc4)o3)C2=O)ccc1Cl [I6] | Inactive |  |  |  | 
O=C(O)c1cc(N2N=C(c3ccccc3)/C(=C\c3ccc(-c4ccccc4)o3)C2=O)ccc1Cl [I10] | abolished the activity |  |  |  | 
CC1=NN(c2ccc(Cl)c(C(=O)O)c2)C(=O)/C1=C/c1ccc(-c2ccccc2)o1 [I14] | abolished the activity |  |  |  | 
O=C1/C(=C/c2ccc(-c3ccccc3)o2)C(C(F)(F)F)=NN1c1cccc2ccccc12 [I24] |  | 8.51 |  |  | 
Cc1ccccc1N1N=C(C(F)(F)F)/C(=C\c2ccc(-c3ccccc3)o2)C1=O [I25] |  | 17.8 | lowest potency | 4.75 | 
Cc1cccc(C)c1N1N=C(C(F)(F)F)/C(=C\c2ccc(-c3ccccc3)o2)C1=O [I26] |  | 6.46 |  |  | Mao-A activity (percentage of the vehicle control) [2]: inhibited Mao-A activity; PDI activity (percentage of the vehicle control) (recombinant PDI): inhibited PDI activity
COc1ccccc1N1N=C(C(F)(F)F)/C(=C\c2ccc(-c3ccccc3)o2)C1=O [I27] |  | 8.51 |  |  | 
O=C1/C(=C/c2ccc(-c3ccccc3)o2)C(C(F)(F)F)=NN1c1ccccc1Cl [I28] |  | 4.79 |  |  | 
O=C1/C(=C/c2ccc(-c3ccccc3)o2)C(C(F)(F)F)=NN1c1cc(F)ccc1F [I30] |  | 10.7 |  | 4.97 | 
O=C1/C(=C/c2ccc(-c3ccccc3)o2)C(C(F)(F)F)=NN1c1cccnc1 [I32] |  | 19.1 |  | 4.72 | 
O=C1/C(=C/c2ccc(-c3ccccc3)o2)C(C(F)(F)F)=NN1c1cccc(S(=O)(=O)O)c1 [I34] |  |  | retained activity | 5.25 | metabolic activity (MTS assay) (MDAMB231 cells): inactive; IC50 / potency relative to EN460 (recombinant ERO1A [3]; compared with EN460): comparable to EN460; ERO1 inhibitory activity (in words) (recombinant ERO1A [3]; compound in aqueous solution (physiological solution)): completely inactive; ERO1 reduction / activity in cells [4]: failed to reduce ERO1A; also recorded: completely inactive in cells; ERO1 reduction / activity in cells ([4]; listed as I34(DMSO)): inactive in cells
O=C(O)c1cc(N2N=C(C(F)(F)F)/C(=C\c3ccc(-c4cccc(F)c4)o3)C2=O)ccc1Cl [I36] |  |  | did not significantly affect inhibitory activity compared to EN460; also recorded: maintained the potency |  | 
O=C(O)c1cc(N2N=C(C(F)(F)F)/C(=C\c3ccc(-c4cccc(C(F)(F)F)c4)o3)C2=O)ccc1Cl [I37] |  | 5.62 | did not significantly affect inhibitory activity compared to EN460; also recorded: maintained the potency |  | 
O=C(O)c1cc(N2N=C(C(F)(F)F)/C(=C\c3ccc(-c4ccc(F)cc4)o3)C2=O)ccc1Cl [I38] |  |  | loss of activity |  | 
COc1cccc(-c2ccc(/C=C3/C(=O)N(c4ccc(Cl)c(C(=O)O)c4)N=C3C(F)(F)F)o2)c1 [I39] |  |  | loss of activity | 4.98 | 
O=C(O)c1cc(N2N=C(C(F)(F)F)/C(=C\c3ccc(-c4ccccc4)s3)C2=O)ccc1Cl [I40] |  |  | reduced activity | 4.92 | 
